In patent US20240016781A1, “TREATMENT OF KRAS MUTANT CANCERS” (MEI Pharma, Inc., priority 2020, published 2024):
Where two headings read alike, the source gives them in different places. Blank lines part the entries; values can stand above or below the molecule they belong to.

Legend:
Assay in all cases: 72-hour CellTiter-Glo 2.0 growth inhibition screen (single agent, 9x9 combination dose matrix);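 for Best CI Level: inhibition effect level at which the best CI was calculated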
Format in all cases: cell-based
AsPC-1 = conditions: for Response Area / EC50 / IC50 / Emax / GI50: AsPC-1, Pancreas; for EC50 / IC50 / Emax / GI50: Homo sapiens; for EC50: ASPC1, 72 h; for IC50 / Emax / GI50: ASPC1
HCC44 = conditions: for Response Area / EC50 / IC50 / Emax / GI50: HCC44, Lung; for EC50 / IC50 / Emax / GI50: Homo sapiens; for EC50: HCC44, 72 h; for Best CI Level: unit assumed
KYSE-410 = conditions: for EC50 / IC50 / Emax / GI50: Homo sapiens; for EC50: KYSE-410, 72 h; for EC50 / IC50 / Emax / GI50 / Response Area: KYSE-410, Esophageal; for Best CI Level: unit assumed
LS-513 = conditions: for EC50 / IC50 / Emax / GI50: Homo sapiens; for EC50: LS-513, 72 h; for EC50 / IC50 / Emax / GI50 / Response Area: LS-513, Colorectal
SW837 = conditions: for EC50 / IC50 / Emax / GI50: Homo sapiens; for EC50: SW837, 72 h; for EC50 / IC50 / Emax / GI50 / Response Area: SW837, Colorectal
[1] = AsPC-1 (KRAS G12D), enhancer + MEI-522 (Voruciclib), 72 h;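 for Best CI Level: inhibition effect level at which the best CI was calculated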
[2] = Additional Single Agent Responses (inhibition, % I), 72 h
[3] = growth inhibition (GI), AUC, single agent, 72 h
[4] = growth inhibition (GI) curve, single agent, 72 h
[5] = Additional Single Agent Responses, 72 h, read-out: Max Response (% I)
[6] = growth inhibition (GI), single agent, 72 h, read-out: Max Response (% GI)
[7] = enhancer combined with MEI-522 (Voruciclib), AsPC-1 (Pancreas), 72 hours, inhibition data
[8] = HCC44 (KRAS G12C), enhancer + MEI-522 (Voruciclib), 72 h;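 for Best CI Level: inhibition effect level at which the best CI was calculated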
[9] = enhancer combined with MEI-522 (Voruciclib), HCC44 (Lung), 72 hours, inhibition data
[10] = KYSE-410 (KRAS G12C), enhancer + MEI-522 (Voruciclib), 72 h;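 for Best CI Level: inhibition effect level at which the best CI was calculated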
[11] = enhancer combined with MEI-522 (Voruciclib), KYSE-410 (Esophageal), 72 hours, inhibition data
[12] = LS-513 (KRAS G12D), enhancer + MEI-522 (Voruciclib), 72 h;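 for Best CI Level: inhibition effect level at which the best CI was calculated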
[13] = enhancer combined with MEI-522 (Voruciclib), LS-513 (Colorectal), 72 hours, inhibition data
[14] = SW837 (KRAS G12C), enhancer + MEI-522 (Voruciclib), 72 h;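 for Best CI Level: inhibition effect level at which the best CI was calculated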
[15] = enhancer combined with MEI-522 (Voruciclib), SW837 (Colorectal), 72 hours, inhibition data

EC50 (AsPC-1; [2]): 94.9 nM | EC50 (AsPC-1; [4]): 82.3 nM | IC50 (AsPC-1; [2]): 332 nM | GI50 (AsPC-1; [4]): 109 nM | EC50 (HCC44; [2]): 18.5 nM | EC50 (HCC44; [4]): 22 nM | IC50 (HCC44; [2]): 25.3 nM | GI50 (HCC44; [4]): 18.7 nM | EC50 (SW837; [2]): 35.4 nM | EC50 (SW837; [4]): 42.1 nM | IC50 (SW837; [2]): 53.4 nM | GI50 (SW837; [4]): 34.1 nM
Compound: CN1CCN(c2ccc(OC(F)(F)F)c(Nc3ncc4c(n3)-c3c(c(C(N)=O)nn3CCO)CC4)c2)CC1 [Onvansertib]
Best CI (AsPC-1; [1]): 0.84 | Bliss Volume (AsPC-1; [1]): −1.25 | HSA volume (AsPC-1; [1]): −1.39 | Loewe Volume (AsPC-1; [1]): −0.75 | Synergy Score (AsPC-1; [1]): 1.41 | Response Area (AsPC-1; [2]): 2.50 | Response Area (AsPC-1; [3]): 3.48 | Emax (AsPC-1; [5]): 60% | Emax (AsPC-1; [6]): 84% | Best CI (AsPC-1; [7]): 1.13 | Best CI Level (AsPC-1; [7]): 20 | Bliss Volume (AsPC-1; [7]): −1.91 | HSA volume (AsPC-1; [7]): −0.98 | Loewe Volume (AsPC-1; [7]): −0.67 | Synergy Score (AsPC-1; [7]): 0.67 | Best CI (HCC44; [8]): 0.65 | Bliss Volume (HCC44; [8]): 4.26 | HSA volume (HCC44; [8]): 1.33 | Loewe Volume (HCC44; [8]): 0.16 | Synergy Score (HCC44; [8]): 3.96 | Response Area (HCC44; [2]): 3.83 | Response Area (HCC44; [3]): 5.16 | Emax (HCC44; [5]): 81% | Emax (HCC44; [6]): 112% | Best CI (HCC44; [9]): 0.80 | Bliss Volume (HCC44; [9]): −0.85 | HSA volume (HCC44; [9]): 0.68 | Loewe Volume (HCC44; [9]): −0.34 | Synergy Score (HCC44; [9]): 0.67 | Best CI Level (HCC44; [9]): 20% | EC50 (KYSE-410; [2]): 34.9 nM | EC50 (KYSE-410; [4]): 34.7 nM | IC50 (KYSE-410; [2]): 55.5 nM | Emax (KYSE-410; [5]): 65% | GI50 (KYSE-410; [4]): 43.1 nM | Emax (KYSE-410; [6]): 78% | Best CI (KYSE-410; [10]): 0.60 | Bliss Volume (KYSE-410; [10]): −1.39 | HSA volume (KYSE-410; [10]): −2.18 | Loewe Volume (KYSE-410; [10]): −2.01 | Synergy Score (KYSE-410; [10]): 0.29 | Response Area (KYSE-410; [2]): 2.89 | Response Area (KYSE-410; [3]): 3.49 | Best CI (KYSE-410; [11]): 0.68 | Bliss Volume (KYSE-410; [11]): −1.63 | HSA volume (KYSE-410; [11]): −1.72 | Loewe Volume (KYSE-410; [11]): −1.53 | Synergy Score (KYSE-410; [11]): 0.20 | Best CI Level (KYSE-410; [11]): 20% | EC50 (LS-513; [2]): 49.4 nM | EC50 (LS-513; [4]): 49.4 nM | IC50 (LS-513; [2]): 61.6 nM | Emax (LS-513; [5]): 79% | GI50 (LS-513; [4]): 51.7 nM | Emax (LS-513; [6]): 97% | Best CI (LS-513; [12]): 0.96 | Bliss Volume (LS-513; [12]): 0.53 | HSA volume (LS-513; [12]): −0.64 | Loewe Volume (LS-513; [12]): −1.49 | Synergy Score (LS-513; [12]): 2.51 | Response Area (LS-513; [2]): 3.29 | Response Area (LS-513; [3]): 4.03 | Best CI (LS-513; [13]): 0.90 | Best CI Level (LS-513; [13]): 20 | Bliss Volume (LS-513; [13]): −2.22 | HSA volume (LS-513; [13]): −0.87 | Loewe Volume (LS-513; [13]): −1.32 | Synergy Score (LS-513; [13]): 0.70 | Emax (SW837; [5]): 76% | Emax (SW837; [6]): 118% | Best CI (SW837; [14]): 0.78 | Bliss Volume (SW837; [14]): 0.66 | HSA volume (SW837; [14]): −1.30 | Loewe Volume (SW837; [14]): −4.09 | Synergy Score (SW837; [14]): 0.88 | Response Area (SW837; [2]): 3.32 | Response Area (SW837; [3]): 5.06 | Best CI (SW837; [15]): 0.76 | Best CI Level (SW837; [15]): 20 | Bliss Volume (SW837; [15]): −1.39 | HSA volume (SW837; [15]): −0.59 | Loewe Volume (SW837; [15]): −2.03 | Synergy Score (SW837; [15]): 0.33

EC50 (AsPC-1; [2]): 12.2 nM | EC50 (AsPC-1; [4]): 12.2 nM | IC50 (AsPC-1; [2]): 23.1 nM | GI50 (AsPC-1; [4]): 13.7 nM | EC50 (HCC44; [2]): 4.2 nM | EC50 (HCC44; [4]): 4.5 nM | IC50 (HCC44; [2]): 6.3 nM | GI50 (HCC44; [4]): 4.4 nM | EC50 (SW837; [2]): 13.8 nM | EC50 (SW837; [4]): 20.1 nM | IC50 (SW837; [2]): 21 nM | GI50 (SW837; [4]): 14.8 nM
Compound: CC[C@@H]1C(=O)N(C)c2cnc(Nc3ccc(C(=O)N[C@H]4CC[C@H](N5CCN(CC6CC6)CC5)CC4)cc3OC)nc2N1C(C)C [Volasertib]
Best CI (AsPC-1; [1]): 0.51 | Bliss Volume (AsPC-1; [1]): −1.02 | HSA volume (AsPC-1; [1]): 0.04 | Loewe Volume (AsPC-1; [1]): −0.85 | Synergy Score (AsPC-1; [1]): 1.87 | Response Area (AsPC-1; [2]): 3.11 | Response Area (AsPC-1; [3]): 4.36 | Emax (AsPC-1; [5]): 69% | Emax (AsPC-1; [6]): 96% | Best CI (AsPC-1; [7]): 0.89 | Best CI Level (AsPC-1; [7]): 20 | Bliss Volume (AsPC-1; [7]): −2.24 | HSA volume (AsPC-1; [7]): −0.18 | Loewe Volume (AsPC-1; [7]): −0.80 | Synergy Score (AsPC-1; [7]): 0.83 | Best CI (HCC44; [8]): 0.55 | Bliss Volume (HCC44; [8]): 6.88 | HSA volume (HCC44; [8]): 2.51 | Loewe Volume (HCC44; [8]): 0.65 | Synergy Score (HCC44; [8]): 6.97 | Response Area (HCC44; [2]): 4.07 | Response Area (HCC44; [3]): 5.39 | Emax (HCC44; [5]): 81% | Emax (HCC44; [6]): 113% | Best CI (HCC44; [9]): 0.83 | Bliss Volume (HCC44; [9]): −1.88 | HSA volume (HCC44; [9]): 0.12 | Loewe Volume (HCC44; [9]): −0.92 | Synergy Score (HCC44; [9]): 1.13 | Best CI Level (HCC44; [9]): 80% | EC50 (KYSE-410; [2]): 8.6 nM | EC50 (KYSE-410; [4]): 8.5 nM | IC50 (KYSE-410; [2]): 13.1 nM | Emax (KYSE-410; [5]): 74% | GI50 (KYSE-410; [4]): 10.1 nM | Emax (KYSE-410; [6]): 89% | Best CI (KYSE-410; [10]): 1.85 | Bliss Volume (KYSE-410; [10]): −3.04 | HSA volume (KYSE-410; [10]): −2.10 | Loewe Volume (KYSE-410; [10]): −3.58 | Synergy Score (KYSE-410; [10]): 0.91 | Response Area (KYSE-410; [2]): 3.52 | Response Area (KYSE-410; [3]): 4.24 | Best CI (KYSE-410; [11]): 0.40 | Bliss Volume (KYSE-410; [11]): −3.11 | HSA volume (KYSE-410; [11]): −1.71 | Loewe Volume (KYSE-410; [11]): −2.95 | Synergy Score (KYSE-410; [11]): 0.62 | Best CI Level (KYSE-410; [11]): 70% | EC50 (LS-513; [2]): 18.6 nM | EC50 (LS-513; [4]): 18.5 nM | IC50 (LS-513; [2]): 23.9 nM | Emax (LS-513; [5]): 74% | GI50 (LS-513; [4]): 20 nM | Emax (LS-513; [6]): 91% | Best CI (LS-513; [12]): 0.60 | Bliss Volume (LS-513; [12]): 3.16 | HSA volume (LS-513; [12]): 1.53 | Loewe Volume (LS-513; [12]): 1.21 | Synergy Score (LS-513; [12]): 5.33 | Response Area (LS-513; [2]): 3.44 | Response Area (LS-513; [3]): 4.22 | Best CI (LS-513; [13]): 0.62 | Best CI Level (LS-513; [13]): 80 | Bliss Volume (LS-513; [13]): −1.28 | HSA volume (LS-513; [13]): 0.04 | Loewe Volume (LS-513; [13]): 0.06 | Synergy Score (LS-513; [13]): 1.44 | Emax (SW837; [5]): 79% | Emax (SW837; [6]): 128% | Best CI (SW837; [14]): 0.72 | Bliss Volume (SW837; [14]): 4.69 | HSA volume (SW837; [14]): 2.14 | Loewe Volume (SW837; [14]): 0.39 | Synergy Score (SW837; [14]): 5.42 | Response Area (SW837; [2]): 3.61 | Response Area (SW837; [3]): 5.63 | Best CI (SW837; [15]): 0.83 | Best CI Level (SW837; [15]): 20 | Bliss Volume (SW837; [15]): 0.17 | HSA volume (SW837; [15]): 1.01 | Loewe Volume (SW837; [15]): 0.29 | Synergy Score (SW837; [15]): 1.39
